Series [1] concerns 3D7 P. falciparum gametocytes stages I/III. Kind of series: P. falciparum young gametocytes (stages I/III), luciferase viability. Type of series: cell-based. The settings on record: Plasmodium falciparum; 3D7 strain, 72 h; mean ± S.D. of one experiment; read-out: IC50, gametocytes of P. falciparum, Stages I/III. As to the method:
The activity of compounds was assessed against young gametocytes (stages I/III) and against mature gametocytes (stage V). […] A volume of 100 μL of 3D7elo1-pfs16-CBG99 gametocytes of 3D7 P. falciparum at 0.5–1% parasitemia and 2% hematocrit were dispensed. […] Luciferase activity was used to determine gametocytes viability. A volume of 100 µL of culture medium was removed from each well to increase hematocrit; 70 µL of resuspended culture was transferred to a black 96-well plate; 70 µL of D-luciferin (1 mM in citrate buffer 0.1 M, pH 5.5) was added. Luminescence measurements were performed after 10 min with 500 ms integration time. The IC50 was extrapolated from nonlinear regression analysis of the concentration–response curve.

The test system of series [2] is β-hematin formation from Fe(III)PPIX (hematin). Kind of series: β-hematin inhibition activity, oxidizing conditions (O-BHIA, hematin). The settings on record: 18 h incubation; median ± S.E.M. of three experiments; free bases; read-out: β-Hematin Inhibitory Activity (BHIA) O-BHIA (Hematin), IC50. Type of series: biochemical. Here is the method: A hemin chloride (10 μL of 4 mM stock in 80% DMSO) aliquot was dispensed in a U bottom 96-well microplate, and then, 10 μL of 0.1 M NaOH (O-BHIA) or 4 mM reduced glutathione in PBS at pH 7.0 (R-BHIA) was added, and plates were sealed and incubated at 37 °C for 2 h. After this, 10 μL of the drug dissolved in DMSO was added and incubated for 2 h, followed by the addition of 180 μL of sodium acetate buffer (1.0 M, pH 5.2) and 10 μL of nonionic detergent IGEPAL-CA-630 solution in methanol (10 mg/mL). Plates were sealed and incubated at 37 °C for 18 h. […] The reaction was stopped by the addition of 50 μL of a sodium dodecyl sulfate solution (5.0% v/v in 0.1 M bicarbonate buffer at pH 9.0). Plates were centrifuged at 3700 rpm for 5 min, and 100 μL of supernatant was placed in a separate plate. […] Two independent experiments were performed, and each drug concentration was tested in quadruplicate concentrations.

Series [3] is described as follows: Cytotoxicity against J774 cells (CellTiter-Glo). Type of series: cell-based, murine. The settings on record: mouse, J774 macrophage cells; J774 macrophages, 72 h, CellTiterGlo; at least two experiments; read-out: CC50 ± S.E.M. Here is the method: In vitro cytotoxicity was assayed against two mammalian cell lineages, J774 (murine macrophages) and HepG2 (human hepatocellular carcinoma). […] Cell cultures from 60 to 80% confluence were trypsinized, washed in complete medium, and 4 × 10^4 cells were plated in 100 µL per well with complete medium in 96-well flat-bottom white plates for 24 h at 37 °C prior to the addition of the compounds. Triplicate aliquots of compound and the reference drugs (stock solution in DMSO) covering 7 different concentrations at 2-fold dilutions were added to the wells, and plates were incubated for 72 h more. After incubation for 72 h at 37 °C, plates were maintained at room temperature, the culture medium was removed, and 100 µL volume of CellTiter-Glo reagent was added to each well. The bioluminescence was measured using a microplate reader Filtermax F5 Multi-Mode instrument (Molecular Devices) and Softmax software. […] The selectivity index (S.I.) was estimated using the IC50s from mammalian cells divided by the IC50 obtained against the asexual blood stage P. falciparum.
In general terms: ATP-based viability assays read luminescence as a measure of living cells.

The next series has as its target T1, human TrxR (hTrxR) (Homo sapiens, UniProt Q16881).
T1 construct: made in house
T1 sequence (Q16881 151-649 limits assumed): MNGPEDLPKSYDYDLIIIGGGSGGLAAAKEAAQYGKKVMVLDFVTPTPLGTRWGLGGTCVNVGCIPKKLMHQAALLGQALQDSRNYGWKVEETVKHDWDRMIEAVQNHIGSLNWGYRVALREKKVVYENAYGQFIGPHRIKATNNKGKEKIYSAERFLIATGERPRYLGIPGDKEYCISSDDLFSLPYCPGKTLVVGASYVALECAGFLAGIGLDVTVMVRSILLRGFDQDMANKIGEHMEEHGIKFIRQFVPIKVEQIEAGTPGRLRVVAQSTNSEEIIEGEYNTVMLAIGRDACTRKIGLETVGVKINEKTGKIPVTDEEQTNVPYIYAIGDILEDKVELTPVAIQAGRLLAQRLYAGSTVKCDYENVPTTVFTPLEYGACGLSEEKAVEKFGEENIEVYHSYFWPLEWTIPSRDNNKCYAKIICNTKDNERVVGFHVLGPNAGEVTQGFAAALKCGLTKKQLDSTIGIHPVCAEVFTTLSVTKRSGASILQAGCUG
Kind of series: Inhibition of enzymatic activity of recombinant human TrxR. Type of series: biochemical. The settings on record: recombinant enzyme, 15 min preincubation; mean of one experiment; read-out: IC50 for TrxRs, Human (Sec). As to the method: The codon-optimized sequence for PfTrxR [27, 28] was synthesized and subcloned into pET-15b (Genscript) and expressed and purified as for human glutathione reductase (hGR). Recombinant Schistosoma mansoni (S. mansoni) thioredoxin glutathione reductase (SmTGR), human TrxR (hTrxR), and hGR proteins were expressed and purified as described. TrxR and TGR enzyme inhibition assays were performed in triplicate at 25 °C in 0.1 M potassium phosphate (pH 7.4), 10 mM EDTA, 100 µM NADPH and 0.01% Tween-20. SmTGR (4 nM), hTrxR (4 nM), and PfTrxR (50 nM) were preincubated with the compounds for 15 min. The reaction was started with addition of an equal volume of 5,5′-dithiobis(2-nitrobenzoic acid) (6 mM) and NADPH (100 µM). The increase in A412 during the first 3 min was recorded. […]. The reactions were performed in triplicate. The IC50s were calculated in Prism version 5.01.

Series [4] is described as follows: Interaction with reduced glutathione (GSH) by monochlorobimane fluorescence assay. Here is the method:
Ten microliters per well of a solution of 2.0 mM reduced glutathione (Sigma-Aldrich, St. Louis, MO, USA, dissolved in PBS pH 7.2) was distributed in a 96-well microplate containing 170 μL/well of DMSO/PBS (1:1; v/v). Stock solutions of compounds were diluted in DMSO, and 10 μL was added in quadruplicate in the respective wells to a final concentration of 0.015 to 0.5 mM. […] After 1 h incubation at room temperature, fluorescence was recorded (λex = 360 nm, λem = 440 nm). Blank subtraction was performed prior to monochlorobimane addition, and controls included untreated wells (no drug) and no GSH. The results were expressed as a percentage of inhibition of GSH binding to monochlorobimane in comparison to control without compound. At least two independent experiments were performed.

For the compound `CCN(CC)Cc1cc(Nc2ccnc3cc(Cl)ccc23)ccc1O` [Amodiaquine (AQ), amodiaquine], the IC50 amounted to 0.061 ± 0.02 µM in series [1], 140 ± 30 µM in series [2] and 26.5 µM at human TrxR (hTrxR). For the same compound, in series [3], the CC50 (commonly the concentration that lowers cell viability or growth by half) at 72 h stood at 23.8 µM.

For the compound `[Cl][Au].c1ccc(P(c2ccccc2)c2ccccc2)cc1` [[AuClPPh3]], in series [4] (2 h incubation, 10 to 0.3 drug:GSH molar ratio), the “interaction with GSH” value is “able to interact with GSH in a drug-concentration manner”. Moreover, the “binding to GSH at 24 h versus 2 h incubation” value in series [4] (24 h versus 2 h incubation) was “remained almost unaltered”. The IC50 at human TrxR (hTrxR) came out at 0.00065 µM.
